Entries after “also recorded” stand apart in the source; their conditions may differ. Marks after values point to notes of the source that are not given here.
How the values were obtained:
[1] = Linagliptin alone or with low-dose exenatide for 28 days: plasma parameters and body composition in DIO rats
[2] = Pharmacokinetics of BI 1356 after multiple oral doses once daily for 12 days in patients with type 2 diabetes; conditions: for RA, AUC (accumulation ratio) / RA, Cmax (accumulation ratio): 12 days, type 2 diabetes patients, gMean
[3] = Day 29, DIO rats, vehicle pump + Linagliptin 3 mg/kg PO, mean ± SEM

Structure (SMILES): CC#CCn1c(N2CCC[C@@H](N)C2)nc2c1c(=O)n(Cc1nc(C)c3ccccc3n1)c(=O)n2C [BI 1356]
- Carcass Fat [1, 3]: 151.1 ± 7.3 g
- Carcass Protein [1, 3]: 63.8 ± 4.0 g
- Carcass Water [1, 3]: 212.6 ± 3.4 g
- GLP-1 (pM) [1, 3]: 5.72 ± 0.9^b pM
- Glucose [1, 3]: 8.72 ± 0.22 mM
- Insulin [1, 3]: 1.82 ± 0.36 ng/mL
- Leptin [1, 3]: 23.9 ± 2.5 ng/mL
- augmentation of the effect of a low dose of exenatide ([1]; linagliptin 3 mg/kg po in combination with exenatide 3 μg/kg/day sc, 28 days, DIO rats): does not augment the effect of a low dose of exenatide
- effect on body weight, daily food intake, plasma glucose, insulin or carcass fat compared to vehicle-treated controls ([1]; rat, in vivo): no effect
- RA, AUC (accumulation ratio) ([2]; 1 mg once daily oral): 2.03
- RA, Cmax (accumulation ratio) ([2]; 1 mg once daily oral): 1.44
- RA, AUC (accumulation ratio) ([2]; 2.5 mg once daily oral): 1.37
- RA, Cmax (accumulation ratio) ([2]; 2.5 mg once daily oral): 1.25
- RA, AUC (accumulation ratio) ([2]; 5 mg once daily oral): 1.33
- RA, Cmax (accumulation ratio) ([2]; 5 mg once daily oral): 1.33
- RA, AUC (accumulation ratio) ([2]; 10 mg once daily oral): 1.18
- RA, Cmax (accumulation ratio) ([2]; 10 mg once daily oral): 1.40
- excretion via the kidney ([2]; therapeutic oral dose levels): < 7 % of the administered oral dose
- main route of excretion ([2]; therapeutic oral dose levels): mainly excreted via the liver; also recorded: primarily excreted unchanged via the bile
- body weight from day 11 after exenatide treatment (BI 1356 3 mg/kg po from Day 11 after exenatide 30 μg/kg/day Day 1-10, DIO rats, vs vehicle control): stabilize their body weight at the new weight level
- less fat put on than vehicle-treated counterparts during exenatide withdrawal (linagliptin 3 mg/kg po after exenatide withdrawal, DIO rats, p=0.07): 10.6%
- body fat weight regain after GLP-1R agonist cessation (replacement of exenatide 30 μg/kg/day (Day 1-10) with linagliptin 3 mg/kg po from Day 11, DIO rats): prevents body fat weight regain
